This is an account of results in US12478066B2, “Pesticidal mixtures” (BASF SE, priority 2019, dated 2025).

Assay type in all cases: cell-based
One assay concerns Microdochium nivale. The assay can be described thus: Microtest: activity against Microdochium nivale (MONGNI). Particulars: 7 days after inoculation. How it is done:
(§1) The active compounds were formulated separately as a stock solution having a concentration of 10000 ppm in dimethyl sulfoxide.
The stock solutions were mixed according to the ratio, pipetted onto a micro titer plate (MTP) and diluted with water to the stated concentrations. A spore suspension of Microdochium nivale in an aqueous biomalt or yeast-bactopeptone-glycerine or DOB solution was then added. The plates were placed in a water vapor-saturated chamber at a temperature of 18° C. Using an absorption photometer, the MTPs were measured at 405 nm 7 days after the inoculation.
(§2) The measured parameters were compared to the growth of the active compound-free control variant (100%) and the fungus-free blank value to determine the relative growth in % of the pathogens in the respective active compounds.
(§3) These percentages were converted into efficacies.
(§4) An efficacy of 0 means that the growth level of the pathogens corresponds to that of the untreated control; an efficacy of 100 means that the pathogens were not growing.
(§5) The expected efficacies of active compound mixtures were determined using Colby's formula [R. S. Colby, “Calculating synergistic and antagonistic responses of herbicide combinations”, Weeds 15, 20-22 (1967)] and compared with the observed efficacies.

Assay [1] has as its system Qoi resistant isolate of Pyrenophora teres. The assay can be described thus: Microtiter test: activity against net blotch Pyrenophora teres on barley (PYRNTE), Qoi resistant isolate. Particulars: 0.063 ppm, 7 days after inoculation. How it is done: as §1
The stock solutions were mixed according to the ratio, pipetted onto a micro titer plate (MTP) and diluted with water to the stated concentrations. A spore suspension of a Qoi resistant isolate of Pyrenophora teres in an aqueous biomalt or yeast-bactopeptone-glycerine or DOB solution was then added. The plates were placed in a water vapor-saturated chamber at a temperature of 18° C. Using an absorption photometer, the MTPs were measured at 405 nm 7 days after the inoculation.
as §2, §3, §4, §5

The test system of another assay is Rhynchosporium secalis. The assay can be described thus: Microtest: activity against Rhynchosporium secalis (RHYNSE). Particulars: 7 days after inoculation. How it is done: as §1
The stock solutions were mixed according to the ratio, pipetted onto a micro titer plate (MTP) and diluted with water to the stated concentrations. A spore suspension of Rhynchosporium secalis in an aqueous biomalt or yeast-bactopeptone-glycerine or DOB solution was then added. The plates were placed in a water vapor-saturated chamber at a temperature of 18° C. Using an absorption photometer, the MTPs were measured at 405 nm 7 days after the inoculation.
as §2, §3, §4, §5

Assay [2] deals with Qoi resistant isolate of Septoria tritici. The assay can be described thus: Microtest: activity against leaf blotch on wheat caused by Septoria tritici (SEPTTR), Qoi resistant isolate. The following applies: 7 days after inoculation. How it is done:
as §1
The stock solutions were mixed according to the ratio, pipetted onto a micro titer plate (MTP) and diluted with water to the stated concentrations. A spore suspension of a Qoi resistant isolate of Septoria tritici in an aqueous biomalt or yeast-bactopeptone-glycerine or DOB solution was then added. The plates were placed in a water vapor-saturated chamber at a temperature of 18° C. Using an absorption photometer, the MTPs were measured at 405 nm 7 days after the inoculation.
as §2, §3, §4, §5

A further assay has as its system Leptosphaeria nodorum. Nature of the assay: Microtest: activity against wheat leaf spots caused by Leptosphaeria nodorum (LEPTNO). The following applies: 7 days after inoculation. How it is done:
as §1
The stock solutions were mixed according to the ratio, pipetted onto a micro titer plate (MTP) and diluted with water to the stated concentrations. A spore suspension of Leptosphaeria nodorum in an aqueous biomalt or yeast-bactopeptone-glycerine or DOB solution was then added. The plates were placed in a water vapor-saturated chamber at a temperature of 18° C. Using an absorption photometer, the MTPs were measured at 405 nm 7 days after the inoculation.
as §2, §3, §4, §5

Take `COc1ccnc(C(=O)N[C@@H](C)C(=O)O[C@@H](C)C(c2ccc(F)cc2)c2ccc(F)cc2)c1OC(C)=O` [Florylpicoxamid, [(1S)-2,2-bis(4-fluorophenyl)-1-methyl-ethyl] (2S)-2-[(3-acetoxy-4-methoxy-pyridine-2-carbonyl)amino]propanoate]: the Observed efficacy in the assay on Microdochium nivale (0.004 ppm) is reported as 3; in the assay on Microdochium nivale (0.016 ppm) it was 18; in the assay with Microdochium nivale (0.063 ppm), 44; in assay [1], 9; in the assay with Rhynchosporium secalis (0.063 ppm) it was 55; in assay [2] (0.016 ppm) it was 0. For the same compound, the Observed efficacy in assay [2] (0.063 ppm) turned out to be 12; in the assay on Leptosphaeria nodorum (0.004 ppm), 13.

Regarding `Cc1cccc(-n2nnn(C)c2=O)c1COc1ccn(-c2ccc(Cl)cc2)n1` [Metyltetraprol, 1-[2-[[1-(4-chlorophenyl)pyrazol-3-yl]oxymethyl]-3-methyl-phenyl]-4-methyl-tetrazol-5-one], the Observed efficacy in the assay with Microdochium nivale (0.004 ppm) is listed as 1; with Microdochium nivale (0.016 ppm), 32; in assay [1], 11; in the assay on Rhynchosporium secalis (0.016 ppm), 14; in assay [2] (0.004 ppm), 1; in assay [2] (0.016 ppm) it was 0. Moreover, the Observed efficacy in assay [2] (0.063 ppm) is 1; with Leptosphaeria nodorum (0.016 ppm), 49.
